Source: BindingDB's records for doi:10.1021/jm00079a011 (Kanebo, 1992)

Target: DNA gyrase (Escherichia coli)
Experiment: The inhibitory activity was measured for the supercoiling activity of DNA gyrase isolated from Escherichia coli K-12 C600.

Row | IC50 | Compound
1 | 2580 nM | O=C(O)c1c(=O)c2cc(F)c(N3CCCC3)c3c2n2c(csc12)CO3
2 | 666 nM | NC1CCN(c2c(F)cc3c(=O)c(C(=O)O)c4scc5n4c3c2OC5)C1 (stereo unspecified)
3 | 727 nM | CN1CCN(c2c(F)cc3c(=O)c(C(=O)O)c4scc5n4c3c2OC5)CC1
4 | 929 nM | O=C(O)c1c(=O)c2cc(F)c(N3CCC(O)C3)c3c2n2c(csc12)CO3 (stereo unspecified)

Row | Compound | IC50
5 | CC1COc2c(N3CCNCC3)c(F)cc3c(=O)c(C(=O)O)cn1c23 (stereo unspecified) | 1690 nM
6 | O=C(O)c1c(=O)c2cc(F)c(N3CCNCC3)c3c2n2c(csc12)CO3 | 452 nM
